Measurements: US8426406B2, “Glucocorticoid receptor agonist comprising 2,2,4-trimethyl-6-phenyl-1,2-dihydroquinoline derivatives having substituted oxy group” (Santen Pharmaceutical Co., Ltd., priority 2008, dated 2013)

How the values were obtained:
Format in all cases: in vivo
[1] = tested on: atopic dermatitis model in mice; experiment: Inhibitory effect test on the vascular hyper-permeability in the atopic dermatitis model; details: DNFB, 1% (W/W) test compound ointment on ears, 21 times in total, dye leakage vs vehicle, 12 ears in 6 animals
Procedure: In order to evaluate the effects in atopic dermatitis of the present compound, the inhibitory effects of test compound on the vascular hyper-permeability in the atopic dermatitis model in mice were investigated. Procedure of atopic dermatitis model and estimation method was used according to the method of Nagai et al. (J. Pharmacol. Exp. Ther., 283: 321-327 (1997)) with modification. The inhibitory effects were calculated based on dye leakage in vehicle-treated group (control) and test compound-treated group.
The test compound was mixed with white petrolatum, whereby a 1% (W/W) test compound ointment was prepared.
1) Mice were challenged by topical instillation of 25 μL of 0.15% DNFB solution on both sides of both ears once a week for 5 weeks.
2) Test compounds were administered by topical instillation of 25 μL ointments on each side of both ears five times a week from the previous day of the 1st DNFB painting to the previous day of 5th DNFB painting, 21 times in total. Mice were painted with the test compound ointment onto the ear, 25 μL to the inner and 25 μL to outer side. In vehicle-treated group (control group), white petrolatum was administered by topical instillation in the same way.
3) Dyes, a solution of 0.2% Evans blue, were administered to mice intravenously just after the 5th DNFB painting. Ear tissues were removed 2 hours after the intravenous injection of dyes. Then each removed tissue was put into dye extract and dye was extracted. The absorbance of each extract was determined with a spectrophotometer. The amount of dye leakage was calculated from obtained absorbance. The inhibition ratio of the vascular hyper-permeability associated with atopic dermatitis of test compound-treatment group was calculated according to the following equation 1. The inhibition ratio of the vascular hyper-permeability of test compound-treatment group(%)=(1−Ax/Ao)×100 (Calculation Equation 1) Ao: the amount of dye leakage in vehicle-treated group (Control) Ax: the amount of dye leakage in test compound-treated group (Result and Discussion)

[2] = tested on: allergic conjunctivitis model in mice; experiment: Inhibitory effect on the vascular hyper-permeability in allergic conjunctivitis model; details: Mus musculus, 1% (W/V) test compound suspension instilled to the right eye three times before ovalbumin instillation, dye leakage vs vehicle, mean of 5-6 eyes, read-out: The inhibition ratio of the vascular hyper-permeability (%)
Procedure: In order to evaluate anti-allergic effect, inhibitory effect on the vascular hyper-permeability in allergic conjunctivitis model in mice was examined. This effect was calculated based on dye leakages of vehicle-treated group (control group) and test compound-treated group.
By adding 0.5% polysorbate 80/saline to the test compound, a 1% (W/V) test compound suspension was prepared.
1) Ovalbumin absorbed on aluminum hydroxide gel was dissolved in saline (20 μg ovalbumin/mL), and male BALE/c mice, 6 weeks old, were actively sensitized to the antigen by intraperitoneal injections of 500 μL of it.
2) On the 6th day from sensitization, sensitized mice were boosted by additional intraperitoneal injections of 500 μL ovalbumin absorbed on aluminum hydroxide gel (20 μg ovalbumin/mL).
3) On the 11th day, 12th day, 13th day, 14th day and 15th day from the first sensitization, allergic conjunctivitis were induced by installations to the right eyes of the mice of […] of 50% glycerol solution containing 15% (W/V) ovalbumin.
4) […] of test compound suspension per eye was instilled to the right eye of the above mice 15 min, 1 hr and 3 hrs before ovalbumin instillation (three times) on the 15th day from sensitization. In vehicle-treated group (control group), the mice were instilled with 0.5% polysorbate 80/saline in substitution for test compound suspension.
5) Just before ovalbumin instillation on the 15th day from sensitization, all animals received a tail intravenous injection of 0.1% Evans blue dye. The right periocular tissues of the mice, which were the leaked parts of dye, were collected 30 min after ovalbumin instillation. The dye was extracted from the tissues with the dye extraction liquid. Then the absorbance of the dye extract was measured. The dye leakage was calculated from the absorbance value, and the inhibition ratio of the vascular hyper-permeability of test compound-treated group was calculated according to calculation equation 1. The inhibition ratio of the vascular hyper-permeability of test compound-treated group(%)=(1−Ax/Ao)×100 (Calculation Equation 1) Ao: Dye leakage in vehicle-treated group (control group) Ax: Dye leakage in test compound-treated group (Test Results and Discussion)

[3] = tested on: corneal disorder model in rats; experiment: Test for therapeutic effects on corneal disorder (corneal disorder model associated with dry eye); details: male SD rats, exorbital lacrimal gland removed; 0.03% (W/V) ophthalmic suspension instilled 6 times a day for 14 days; fluorescein staining score; 8 eyes in 4 animals
Procedure: In order to evaluate the improvement effect of corneal disorder with dry eye of the present compounds, using male SD rats, corneal disorder models were produced according to the method of Fujihara et al. (Invest. Ophthalmol. Vis. Sci. 42 (1): 96-100 (2001)). After the production of the corneal disorder models, the improvement ratio of the corneal disorder was assessed according to the method of Murakami et al. (Journal of the eye 21 (1): 87-90 (2004)).
A 0.03% (W/V) test compound ophthalmic suspension was prepared by adding vehicle containing polysorbate 80 and the general additives to test compound.
1) Male SD rats were systemically anesthetized by an administration of Somnopentyl. Subsequently the exorbital lacrimal gland of each rat was removed and a corneal damage was induced over a period of 2 months.
2) The test compound ophthalmic suspension was instilled into both eyes 6 times a day for 14 days. In a control group, vehicle was instilled in the same way.
3) Fourteen days after the start of instillation, the damaged parts of the cornea were stained with fluorescein. For each of the upper, middle and lower parts of the cornea, the degree of fluorescein staining was evaluated by scoring according to the criteria shown below and the mean value of the total scores for each of the above-mentioned parts was calculated. The score range in each divided section is 0 to 3 and the minimum score unit is 0.5. 0.5 was provided as an intermediate value between each score 0, 1, 2, 3.
1: Scattered staining (each punctate staining being separated)
2: Moderate staining (a part of punctate staining being adjacent)
3: Heavy staining (each punctate staining being adjacent) Improvement ratio of test compound instillation group(%)=(Ao−Ax)/(Ao−An)×100 (Calculation Equation)
Ao: the mean value of corneal disorder score in vehicle instilled (control) group
Ax: the mean value of corneal disorder score in test compound instilled group
An: the mean value of corneal disorder score in normal rat group.

`COc1cc(OC(=O)c2ccsc2)ccc1-c1ccc2c(c1COc1cc(F)ccc1C)C(C)=CC(C)(C)N2` [Compound 1-12, 5-(5-Fluoro-2-methylphenoxymethyl)-6-[2-methoxy-4-(thiophen-3-ylcarbonyloxy)phenyl]-2,2,4-trimethyl-1,2-dihydroquinoline] was tested, and the “Inhibition ratio of the vascular hyper-permeability (%)” value (“Inhibition ratio … (%)” for short) [1] was 22%, the inhibition in vivo at 10000 µg/mL [2] was 17% and the “Improvement ratio of corneal disorder (%)” value (shortened to “Improvement ratio … (%)”) [3] was 69%.

With `COc1cc(OC(=O)c2ccco2)ccc1-c1ccc2c(c1COc1cc(F)ccc1C)C(C)=CC(C)(C)N2` [Compound 1-13, 5-(5-Fluoro-2-methylphenoxymethyl)-6-[4-(furan-2-ylcarbonyloxy)-2-methoxyphenyl]-2,2,4-trimethyl-1,2-dihydroquinoline] the “Inhibition ratio … (%)” value [1] was 13%, the inhibition in vivo at 10000 µg/mL [2] was 24% and the “Improvement ratio … (%)” value [3] was 61%.

With `COc1cc(OC(=O)c2cccnc2)ccc1-c1ccc2c(c1COc1cc([N+](=O)[O-])ccc1C)C(C)=CC(C)(C)N2` [Compound 1-72, 6-[2-Methoxy-4-(pyridin-3-ylcarbonyloxy)phenyl]-5-(2-methyl-5-nitrophenoxymethyl)-2,2,4-trimethyl-1,2-dihydroquinoline] the “Inhibition ratio … (%)” value [1] was 15%, the inhibition in vivo at 10000 µg/mL [2] was 21% and the “Improvement ratio … (%)” value [3] was 67%.

With `CCCS(=O)(=O)Oc1ccc(-c2ccc3c(c2CNc2ccccc2OC)C(C)=CC(C)(C)N3)c(OC)c1` [Compound 4-18, 5-(2-Methoxyphenylaminomethyl)-6-(2-methoxy-4-propylsulfonyloxyphenyl)-2,2,4-trimethyl-1,2-dihydroquinoline] the “Inhibition ratio … (%)” value [1] was 30%, the inhibition in vivo at 10000 µg/mL [2] was 21% and the “Improvement ratio … (%)” value [3] was 56%.
